Assay [1] has as its system parental (untransformed) Ba/F3 cells. Put plainly: Ba/F3 cell proliferation, BAF3/WT (parental, IL3). The note with it: Mus musculus, inhibition of proliferation of parental cells with IL3, 48 hours, Bright-Glo luminescence. The assay is classed as cell-based, murine. Here is the method:
(§1) Test compounds were dissolved in DMSO (10 mM) and transferred into 1.4 mL flat bottom or V-shaped Matrix tubes carrying a unique 2D matrix chip by individual compound hubs. The numbers of these chips were distinctively linked to the individual compound identification numbers. The stock solutions were stored at −20° C. if not used immediately. For the test procedure the vials were defrosted and identified by a scanner whereby a working sheet is generated that guides the subsequent working steps.
(§2) Compound dilutions were made in 384 well plates. This format enabled the assay of maximally 28 individual test compounds at 11 concentrations (single points) including 2 reference compounds. The dilution protocol included the production of pre-dilution plates, master plates and assay plates: • Compound plates: 30 μL of individual compound (10 mM) DMSO solution including reference compound were transferred into columns 1 and 13 of a 384 well plate. 20 μL of DMSO were added to the rest of the wells and the compounds were serially diluted (1:3) by transferring 10 μL from a well in column 1 or 13 to the next well in column 2 or 14 respectively and successively with the help of a Minitrack robot. • Assay plates: Identical assay plates were then prepared by adding 50 nL each of compound dilutions of the compound plates into 384-well “assay plates”. In the following the compounds were mixed with 50 μL of assays components (cells or enzyme) and tested for their inhibitory activity.
Compounds were tested for their ability to inhibit the proliferation of wt Ba/F3 cells and Ba/F3 cells transformed with constitutively expressed luciferase reporter and BCR-ABL or Tel-FMS or other Tel fusion kinases (EGFR, JAK2, ALK, BMX, FGFR3, FGFR4, FGR2, FLT1, FLT3, IGF1R, INSR, KDR, KIT, LCK, LYN, MEK, MET, PDGFRα, PDGFRβ, RET, RON, ROS, SRC, SYK, TIE and TYRO) or BRafV600E. Parental Ba/F3 cells were maintained in media containing recombinant mouse IL3 and the kinase transformed Ba/F3 cells were maintained in media without IL-3. 7.5 nl of compounds were spotted to each well of 1536-well assay plates by Liquid handling System Echo 555 (Labcyte). 700 cells were then plated into each well of the assay plates in 7 uL culture media per well and compounds were tested at 0.17 nM to 10 uM in 3-fold serial dilutions. The cells were then incubated for 48 hours at 37° C. 3 uL of Bright-Glo® (Promega) was added to each well and the plates were read using ViewLux (PerkinElmer).
The cell line used is the luciferase expressing Ba/F3 murine hematopoietic progenitor cell line transformed with human Tel-TrkA, Tel-TrkB or Tel-TrkC cDNAs (Ba/F3 EN A/B/C). These cells maintained in RPMI/10% fetal bovine serum (RPMI/FCS) supplemented with penicillin 50 mg/mL, streptomycin 50 mg/mL and L-glutamine 200 mM. Untransformed Ba/F3 cells were similarly maintained with the addition 5 ng/ml of murine recombinant IL3. 50 μl of a Ba/F3 or Ba/F3 EN A/B/C cell suspension were plated in Greiner 384 well microplates (white)) at a density of 2000 cells per well. 50 nl of serially diluted test compound (10-0.0001 mM in DMSO solution) is added to each well. The cells were incubated for 48 hours at 37° C., 5% CO2. 25 μl of Bright Glo® (Promega) luciferase substrate is added to each well. The emited luminiscence is quantified using ViewLux (PerkinElmer). IC50 values were calculated by linear regression analysis of the percentage inhibition of each compound at 11 concentrations. […]

The target in assay [2] is T1, Ba/F3 cells co-expressing full length rTrkA and mNGF (Rattus norvegicus, UniProt P35739).
T1 construct: co-expressing full length rTrkA and mNGF; expressed in transfected cells; host or cells: Ba/F3 murine hematopoietic progenitor cells
T1 sequence (P35739 33-799): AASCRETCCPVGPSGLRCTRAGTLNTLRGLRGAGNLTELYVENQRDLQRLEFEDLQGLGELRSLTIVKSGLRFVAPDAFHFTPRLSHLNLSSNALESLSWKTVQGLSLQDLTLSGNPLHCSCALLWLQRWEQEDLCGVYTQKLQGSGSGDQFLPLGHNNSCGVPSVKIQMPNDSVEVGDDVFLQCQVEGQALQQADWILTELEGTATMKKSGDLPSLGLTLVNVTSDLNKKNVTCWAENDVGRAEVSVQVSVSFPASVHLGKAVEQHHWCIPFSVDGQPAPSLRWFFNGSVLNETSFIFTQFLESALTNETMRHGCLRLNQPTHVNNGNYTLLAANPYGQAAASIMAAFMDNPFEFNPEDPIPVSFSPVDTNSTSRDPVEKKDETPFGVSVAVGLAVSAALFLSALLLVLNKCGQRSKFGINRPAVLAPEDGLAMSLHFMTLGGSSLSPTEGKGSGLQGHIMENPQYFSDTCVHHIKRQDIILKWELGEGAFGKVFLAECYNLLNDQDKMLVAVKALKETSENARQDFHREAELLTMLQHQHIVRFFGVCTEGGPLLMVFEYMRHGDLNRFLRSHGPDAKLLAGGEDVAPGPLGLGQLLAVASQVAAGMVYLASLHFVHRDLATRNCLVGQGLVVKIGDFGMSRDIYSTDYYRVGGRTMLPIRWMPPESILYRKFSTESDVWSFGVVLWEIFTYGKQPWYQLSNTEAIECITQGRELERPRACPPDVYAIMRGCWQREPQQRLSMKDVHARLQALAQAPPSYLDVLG
T1 sequence (P01139 122-241 partner): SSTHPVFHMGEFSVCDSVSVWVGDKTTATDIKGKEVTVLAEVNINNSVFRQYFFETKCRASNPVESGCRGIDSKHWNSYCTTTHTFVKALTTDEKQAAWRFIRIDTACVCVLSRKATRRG
The experiment in a line: Ba/F3 cell proliferation, BaF3/TRKA-NGF. The assay is classed as cell-based. The note with it: inhibition of proliferation, 48 hours, Bright-Glo luminescence.

Assay [3] deals with T2, Ba/F3 cells transformed with human Tel-TrkA (Homo sapiens, UniProt P04629).
T2 construct: expressed in transfected cells; host or cells: luciferase expressing Ba/F3 murine hematopoietic progenitor cell line; the other entry of the earlier key: ETV6 (P41212, Transcription factor ETV6)
T2 sequence (P04629 510-796 limits assumed): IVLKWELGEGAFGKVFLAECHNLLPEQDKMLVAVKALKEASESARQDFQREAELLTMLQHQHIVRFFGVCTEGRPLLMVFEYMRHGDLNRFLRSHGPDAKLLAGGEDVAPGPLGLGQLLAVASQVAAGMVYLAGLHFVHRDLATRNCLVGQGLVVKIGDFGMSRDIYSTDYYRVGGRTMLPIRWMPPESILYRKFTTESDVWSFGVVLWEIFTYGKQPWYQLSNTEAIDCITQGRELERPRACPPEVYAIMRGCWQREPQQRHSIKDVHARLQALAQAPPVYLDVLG
The experiment in a line: Ba/F3 cell proliferation, Ba/F3 Tel-TrkA. The assay is classed as cell-based. The note with it: inhibition of proliferation, 48 hours, Bright-Glo luminescence; read-out: Ba/F3Tel-TrkA. Here is the method:
as §1, §2
The cell line used is the luciferase expressing Ba/F3 murine hematopoietic progenitor cell line transformed with human Tel-TrkA, Tel-TrkB or Tel-TrkC cDNAs (Ba/F3 EN A/B/C). These cells maintained in RPMI/10% fetal bovine serum (RPMI/FCS) supplemented with penicillin 50 mg/mL, streptomycin 50 mg/mL and L-glutamine 200 mM. Untransformed Ba/F3 cells were similarly maintained with the addition 5 ng/ml of murine recombinant IL3. 50 μl of a Ba/F3 or Ba/F3 EN A/B/C cell suspension were plated in Greiner 384 well microplates (white)) at a density of 2000 cells per well. 50 nl of serially diluted test compound (10-0.0001 mM in DMSO solution) is added to each well. The cells were incubated for 48 hours at 37° C., 5% CO2. 25 μl of Bright Glo® (Promega) luciferase substrate is added to each well. The emited luminiscence is quantified using ViewLux (PerkinElmer). IC50 values were calculated by linear regression analysis of the percentage inhibition of each compound at 11 concentrations.
In certain examples compounds of Formula (I) have IC50 values from 0.1 nM 1 μM. In other examples, compounds of Formula (I) have IC50 values from 0.0001 μM to 0.8 μM. In other examples, compounds of Formula (I) have IC50 values from 0.0001 μM to 0.6 μM. In other examples, compounds of Formula (I) have IC50 values from 0.0001 μM to 0.4 μM. In other examples, compounds of Formula (I) have IC50 values from 0.0001 μM to 0.2 μM. In other examples, compounds of Formula (I) have IC50 values from 0.0001 μM to 0.1 μM. In other examples, compounds of Formula (I) have IC50 values from 0.0001 μM to 0.08 μM. In other examples, compounds of Formula (I) have IC50 values from 0.0001 μM to 0.06 μM. In other examples, compounds of Formula (I) have IC50 values from 0.0001 μM to 0.04 μM. In other examples, compounds of Formula (I) have IC50 values from 0.0001 μM to 0.02 μM. In other examples, compounds of Formula (I) have IC50 values from 0.0001 μM to 0.01 μM. In other examples, compounds of Formula (I) have IC50 values from 0.01 μM to 1 μM.

From US9102671B2, “Compounds and compositions as TRK inhibitors” (Novartis AG, priority 2011, dated 2015) come the findings set out here.

pIC50: −log10 of the molar value.

Take `CCOC(=O)c1cnn2ccc(N3C[C@@H](F)C[C@@H]3c3cccc(F)c3)cc12` [Example X-1, ethyl 5-((2R,4S)-4-fluoro-2-(3-fluorophenyl)pyrrolidin-1-yl)pyrazolo[1,5-a]pyridine-3-carboxylate]: the results for the pIC50 in assay [1] and in assay [2] were 5.39 and 9.00, respectively.
As for `CCOC(=O)c1cnn2ccc(N3CC(F)(F)C[C@@H]3c3cccc(F)c3)cc12` [Example X-2, (R)-ethyl 5-(4,4-difluoro-2-(3-fluorophenyl)pyrrolidin-1-yl)pyrazolo[1,5-a]pyridine-3-carboxylate], the pIC50 in assay [3] was 8.52; in assay [1] it was below 5.00; in assay [2], 8.52.
For the molecule `O=C(O)c1cnn2ccc(N3C[C@@H](F)C[C@@H]3c3cccc(F)c3)cc12` [Example X-3, 5-((2R,4S)-4-fluoro-2-(3-fluorophenyl)pyrrolidin-1-yl)pyrazolo[1,5-a]pyridine-3-carboxylic acid], the values for the pIC50 in assay [3], in assay [1] and in assay [2] were 6.83, below 5.00 and 6.96, respectively.
With `O=C(O)c1cnn2ccc(N3CC(F)(F)C[C@@H]3c3cccc(F)c3)cc12` [Example X-4, (R)-5-(4,4-difluoro-2-(3-fluorophenyl)pyrrolidin-1-yl)pyrazolo[1,5-a]pyridine-3-carboxylic acid], the pIC50 in assay [3] is 5.77; in assay [1], below 5.00; in assay [2] it was 6.18.
Taken in the same sequence, the figures for `NC(=O)c1cnn2ccc(N3C[C@@H](F)C[C@@H]3c3cccc(F)c3)cc12` [Example X-5, 5-((2R,4S)-4-fluoro-2-(3-fluorophenyl)pyrrolidin-1-yl)pyrazolo[1,5-a]pyridine-3-carboxamide] were 8.22, below 5.00 and 8.15.
With `NC(=O)c1cnn2ccc(N3CC(F)(F)C[C@@H]3c3cccc(F)c3)cc12` [Example X-6, (R)-5-(4,4-difluoro-2-(3-fluorophenyl)pyrrolidin-1-yl)pyrazolo[1,5-a]pyridine-3-carboxamide], the pIC50 in assay [3] was 7.62; in assay [1], below 5.00; in assay [2], 7.80.
Taken in the same sequence, the figures for `CCOC(=O)c1cnn2ccc(N3C[C@@H](F)C[C@@H]3c3cc(F)cc(C#N)c3)cc12` [Example X-7, ethyl 5-((2R,4S)-2-(3-cyano-5-fluorophenyl)-4-fluoropyrrolidin-1-yl)pyrazolo[1,5-a]pyridine-3-carboxylate] were 9.00, 5.35 and 8.70.
With `CCOC(=O)c1cnn2ccc(N3CC(F)(F)C[C@@H]3c3cc(F)cc(C#N)c3)cc12` [Example X-8, (R)-ethyl 5-(2-(3-cyano-5-fluorophenyl)-4,4-difluoropyrrolidin-1-yl)pyrazolo[1,5-a]pyridine-3-carboxylate], the pIC50 in assay [3] was 7.77; in assay [1], below 5.00; in assay [2], 7.72.
With `NC(=O)c1cc(F)cc([C@H]2CC(F)(F)CN2c2ccn3ncc(C(N)=O)c3c2)c1` [Example X-9, (R)-5-(2-(3-carbamoyl-5-fluorophenyl)-4,4-difluoropyrrolidin-1-yl)pyrazolo[1,5-a]pyridine-3-carboxamide], the pIC50 was 7.43 in assay [3], below 5.00 in assay [1] and 7.32 in assay [2].
Taken in the same sequence, the figures for `N#Cc1cc(F)cc([C@H]2CC(F)(F)CN2c2ccn3ncc(C(N)=O)c3c2)c1` [Example X-11, (R)-5-(2-(3-cyano-5-fluorophenyl)-4,4-difluoropyrrolidin-1-yl)pyrazolo[1,5-a]pyridine-3-carboxamide] were 7.68, below 5.00 and 7.62.
As to `NC(=O)c1cnn2ccc(N3CCCCC3c3cccc(F)c3)cc12` (centres unmarked) [Example X-12, 5-[2-(3-fluorophenyl)piperidin-1-yl]pyrazolo[1,5-a]pyridine-3-carboxamide], the pIC50 was 6.65 in assay [3], below 5.00 in assay [1] and 7.01 in assay [2].
In the case of `NC(=O)c1cnn2ccc(N3CCCC3c3ccccc3C(F)(F)F)cc12` (centres unmarked) [Example X-13, 5-{2-[2-(trifluoromethyl)phenyl]pyrrolidin-1-yl}pyrazolo[1,5-a]pyridine-3-carboxamide], the pIC50 in assay [3] was 6.15; in assay [1] it was below 5.00; in assay [2], 6.47.
With `CCNC(=O)c1cnn2ccc(N3C[C@@H](F)C[C@@H]3c3cccc(F)c3)cc12` [Example X-14, N-ethyl-5-[(2R,4S)-4-fluoro-2-(3-fluorophenyl)pyrrolidin-1-yl]pyrazolo[1,5-a]pyridine-3-carboxamide], the pIC50 was 8.22 in assay [3], below 5.00 in assay [1] and 8.10 in assay [2].
Taken in the same sequence, the figures for `CN(C)C(=O)c1cnn2ccc(N3C[C@@H](F)C[C@@H]3c3cccc(F)c3)cc12` [Example X-15, 5-[(2R,4S)-4-fluoro-2-(3-fluorophenyl)pyrrolidin-1-yl]-N,N-dimethylpyrazolo[1,5-a]pyridine-3-carboxamide] were 7.30, below 5.00 and 7.37.
Consider `CC(C)(C)NC(=O)c1cnn2ccc(N3C[C@@H](F)C[C@@H]3c3cccc(F)c3)cc12` [Example X-16, N-tert-butyl-5-[(2R,4S)-4-fluoro-2-(3-fluorophenyl)pyrrolidin-1-yl]pyrazolo[1,5-a]pyridine-3-carboxamide], for which the pIC50 in assay [3] is 8.30; in assay [1] it was below 5.00; in assay [2], 8.22.
